Test results taken from publication PMC4801399, “Impact of a CXCL12/CXCR4 Antagonist in Bleomycin (BLM) Induced Pulmonary Fibrosis and Carbon Tetrachloride (CCl4) Induced Hepatic Fibrosis in Mice” (PLoS ONE, 2016).
Read-outs that look alike come from different tables or passages of the source.

Legend:
[1] = test system: leukocyte mobilization (blood cell counts); experiment: Hematology measurements after SC administration; type: in vivo, C57BL/6 mice; conditions: SC 400 μg/mouse; data not shown
Method: Non fasted C57BL/6 mice at 7 to 8 weeks of age from Harlan were sacrificed at 0.5, 1, 3, 24 and 48 hours (n = 3/time point) post administration of AMD070 (in 30 mM acetate buffer, pH 5) (400 μg/mouse). All preceding procedures were same as those for AMD070 PK studies via IP injections.

[2] = AMD070 PK study via IP injection: plasma, lung and liver concentration; type: in vivo, C57BL/6 mice; conditions: IP 400 μg/mouse; for concentration at 6 h: six hours post administration; for Kp: C57BL/6, read-out: Tissue AUC/Plasma AUC
Method: (§1) At each endpoint, animals were euthanized with CO2 and blood collected via cardiac puncture. An aliquot was set aside at room temperature for hematology measurements with remaining blood processed for plasma for drug concentration determination. Lungs and livers were also collected and immediately frozen on dry ice and stored at -70°C until determination of drug concentration. AMD070 concentrations in mouse plasma were determined using protein precipitation extraction followed by UPLC-MS/MS analysis. Briefly, 100 μL aliquots of plasma were transferred to individual wells of an Isolute PPT+ (Biotage) array plate containing 300 μL of 0.1% formic acid (FA) in acetonitrile (ACN). […] The sample residue was then reconstituted into 200 μL of 0.1/5/95 FA/ACN/H2O (v/v/v) and analyzed using reverse phase chromatography (gradient elution) combined with multiple reaction monitoring acquisition (MRM). The mobile phases consisted of 0.1% FA in H2O and 0.1% FA in ACN. AMD070 was extracted from lung and liver tissue by homogenization under basic conditions followed by liquid-liquid extraction in tert-butyl methyl ether (TBME) and ethyl acetate respectively. In summary, 50 mg of lung or liver tissue pieces were cut, weighed, and transferred to homogenization tubes. 25 μL of deionized water for lung and 10 μL for liver were added to each tube, followed by the addition of zirconium (Zr) homogenization beads. The samples were homogenized for approximately 20 seconds in the BeadBeater, followed by 1 minute of centrifugation at room temperature at 13,520 rcf. 200 μL of 1 N NaOH was then transferred to each tube, followed by a second homogenization/centrifugation cycle as described above. […] The dried residue was reconstituted into 0.1/5/95 TFA/ACN/H2O and analyzed using reverse phase chromatography (gradient elution) combined with MRM acquisition in positive electrospray mode (ES+). The mobile phases consisted of 0.1% TFA in H2O and 0.1% TFA in ACN.

CXCR4 = test system: CXCR4; design: method as in PMID 20297846; conditions: cited from earlier work
[3] = test system: leukocyte mobilization (blood cell counts); experiment: Hematology measurements after PO administration (leukocyte mobilization); type: in vivo, CD-1 mice
Method: At each endpoint, mice were euthanized with CO2 and blood collected via cardiac puncture. An aliquot was set aside at room temperature for hematology measurements with remaining blood processed for plasma for drug concentration determination. Lungs were collected and immediately frozen on dry ice and stored at -70°C until determination of drug concentration.

[4] = AMD070 PK study via PO: plasma and lung concentration; type: in vivo, CD-1 mice
Method: as §1, with “mice” for “animals”, “Lungs” for “Lungs and livers”, “were” for “were also”

Question: Which results are given for `NCCCCN(Cc1nc2ccccc2[nH]1)[C@H]1CCCc2cccnc21` [AMD070]?
Answer: blood cell count changes compared with IP [1]: magnitude of these changes were lower; Cmax ([2]; C57BL/6, 400 ug, Liver): 14300 ng/g; Tmax ([2]; C57BL/6, 400 ug, Liver): 30 min; Cmax ([2]; C57BL/6, 400 ug, Lung): 6140 ng/g; Tmax ([2]; C57BL/6, 400 ug, Lung): 30 min; Cmax ([2]; C57BL/6, 400 ug, Plasma): 770 ng/mL; Tmax ([2]; C57BL/6, 400 ug, Plasma): 30 min; AUC ([2]; C57BL/6, 400 ug, Plasma, read-out: AUC (all time points)): 1240 ng·h/mL; concentration at 6 h ([2]; C57BL/6, liver, read-out: liver concentration): 6470 ng/g; concentration at 6 h ([2]; C57BL/6, lung, read-out: lung concentration): 3740 ng/g; concentration at 6 h ([2]; C57BL/6, plasma, read-out: plasma concentration): 45 ng/mL; Kp ([2]; Liver): 90.7; Kp ([2]; Lung): 61.2; liver concentration (peak) ([2]; 30 minutes post administration): 14.3 µg/g; lung concentration (peak) ([2]; 30 minutes post administration): 6.14 µg/g; plasma concentration (peak) ([2]; 30 minutes post administration): 770 ng/mL; protein binding adjusted effective concentration (EC90) (CXCR4; 90% effectiveness): 0.044 µg/mL; IC50 (CXCR4): 13 nM; Tmax of WBC increase ([3]; PO 200 μg/mouse): 180 min; WBC counts ([3]; PO 200 μg/mouse): significant, transient increase; WBC counts ([3]; PO 400 μg/mouse): increased and remained elevated for the full 24 hours; eosinophils (WBC differential) ([3]; PO 200 or 400 μg/mouse): no increases; lymphocytes (WBC differential) ([3]; PO 200 or 400 μg/mouse): increased; monocytes (WBC differential) ([3]; PO 200 or 400 μg/mouse): no increases; neutrophils (WBC differential) ([3]; PO 200 or 400 μg/mouse): no increases; platelet counts ([3]; PO 200 or 400 μg/mouse): did not change; red blood cell (RBC) counts ([3]; PO 200 or 400 μg/mouse): did not change; drug levels in the lungs ([4]; PO 200 μg/animal): detectable but not quantifiable; lung Cmax ([4]; PO 400 μg/animal): 267 ng/g; time of lung Cmax after PO ([4]; PO 400 μg/animal): 6 h; plasma concentrations of drug ([4]; PO 200 or 400 μg/animal, data not shown): very low; time lung concentration above IC50 and EC90 ([4]; of the 24 hours after dosing, PO 400 μg/animal, WinNonlin analysis): at least 21 hours
